The record followed here is patent US7829665B2 (priority 2005, dated 2010).

In the first assay the target is T1, full-length NS3/NS4A-2 (HCV NS3 protease) (Hepatitis C virus genotype 1a, UniProt P27958).
T1 construct: Recombinant E. coli or Baculovirus full-length NS3 was diluted to 3.33 μM with assay buffer; made in house; host or cells: E. coli or baculovirus (BV) expression system
T1 sequence (P27958 1027-1657): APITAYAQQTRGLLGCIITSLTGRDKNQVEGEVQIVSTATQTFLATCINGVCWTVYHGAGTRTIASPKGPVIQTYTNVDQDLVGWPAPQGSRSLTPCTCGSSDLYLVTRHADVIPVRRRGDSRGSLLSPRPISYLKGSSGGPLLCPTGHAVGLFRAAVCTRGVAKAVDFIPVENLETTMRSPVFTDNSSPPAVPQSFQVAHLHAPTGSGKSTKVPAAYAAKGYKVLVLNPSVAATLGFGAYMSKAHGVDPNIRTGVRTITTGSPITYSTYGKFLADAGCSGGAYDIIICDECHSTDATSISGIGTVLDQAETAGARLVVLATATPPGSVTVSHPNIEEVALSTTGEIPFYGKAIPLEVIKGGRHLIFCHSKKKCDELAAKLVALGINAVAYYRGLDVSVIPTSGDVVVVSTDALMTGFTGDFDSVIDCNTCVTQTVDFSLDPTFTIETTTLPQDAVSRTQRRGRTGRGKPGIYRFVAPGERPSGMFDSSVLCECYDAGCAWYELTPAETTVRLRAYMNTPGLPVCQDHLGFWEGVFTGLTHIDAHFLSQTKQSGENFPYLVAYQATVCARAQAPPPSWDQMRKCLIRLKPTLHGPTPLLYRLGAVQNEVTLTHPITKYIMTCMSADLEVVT
Briefly: NS3-NS4 protease assay / NS3 inhibition assay (RETS1 substrate, fluorescence kinetic read). In kind it is biochemical. The settings on record: Table 22; read-out: NS3-NS4 IC50. On the procedure:
NS3 complex formation with NS4A-2.
Recombinant E. coli or Baculovirus full-length NS3 was diluted to 3.33 μM with assay buffer and transferred material to an eppendorf tube and place in water bath in 4° C. refrigerator. The appropriate amount of NS4A-2 to 8.3 mM in assay buffer was added to equal the volume of NS3 in step 2.1.1 (conversion factor—3.8 mg/272 μL assay buffer). The material was transferred to an eppendorf tube and place in water bath in 4° C. refrigerator.
After equilibration to 4° C., equal volumes of NS3 and NS4A-2 solutions were combined in an eppendorf tube, mix gently with a manual pipettor, and incubate mixture for 15 minutes in the 4° C. water bath. Final concentrations in the mixture are 1.67 μM NS3, 4.15 mM NS4A-2 (2485-fold molar excess NS4A-2).
After 15 minutes at 4° C., the NS3/NS4A-2 eppendorf tube was removed and place it in a room temperature water bath for 10 minutes. NS3/NS4A-2 was alliquoted at appropriate volumes and store at −80° C. (E. coli NS3 run at 2 nM in assay, aliquot at 25 μL. BV NS3 run at 3 nM in assay, aliquot at 30 μL).
Sample compounds were dissolved to 10 mM in DMSO then diluted to 2.5 mM (1:4) in DMSO. Typically, compounds were added to an assay plate at 2.5 mM concentration, yielding upon dilution a starting concentration of 50 microM in the assay inhibition curve. Compounds were serial diluted in assay buffer to provide test solutions at lower concentrations.
The E. coli. NS3/NS4A-2 was diluted to 4 nM NS3 (1:417.5 of 1.67 μM stock−18 μL 1.67 μM stock+7497 μL assay buffer). The BV NS3/NS4A-2 was diluted to 6 nM NS3 (1:278.3 of 1.67 μM stock−24 μL 1.67 μM stock+6655 μL assay buffer). Using the manual multichannel pipettor, careful not to introduce bubbles into the plate, add 50 μL assay buffer to wells A01-H01 of a black Costar 96-well polypropylene storage plate.
Using the manual multichannel pipettor, careful not to introduce bubbles into the plate, add 50 μL of diluted NS3/NS4A-2 from step 2.2.6 to wells A02-H12 of plate in step 2.2.7. Using the manual multichannel pipettor, careful not to introduce bubbles into the plate, transfer 25 μL of the wells in drug dilution plate in step 2.2.5 to corresponding wells in assay plate in step 2.2.8. Change tips on multichannel pipettor for each row of compounds transferred. Using the manual multichannel pipettor, careful not to introduce bubbles into the plate, mix the wells from the assay plate in step 2.2.9 by aspirating and dispensing 35 μL of the 75 μL in each well five times. Change tips on multichannel pipettor for each row of wells mixed. Cover plate with a polystyrene plate lid and pre-incubate the plate from step 2.2.10 containing NS3 protease and sample compounds 10 minutes at room temperature. While plate from step 2.2.11 is pre-incubating, dilute RETS1 substrate in a 15 mL polypropylene centrifuge tube. Dilute RETS1 substrate to 8 μM (1:80.75 of 646 μM stock−65 μL 646 μM stock+5184 μL assay buffer).
After the plate in step is done pre-incubating, and using the manual multichannel, add 25 μL of substrate to all wells on the plate. Quickly mix the plate as in step 2.2.10, mixing 65 μL of the 100 μL in the wells.
Read the plate in kinetic mode on the Molecular Devices SpectraMax Gemini XS plate reader. Reader settings: Read time: 30 minutes, Interval: 36 seconds, Reads: 51, Excitation λ: 335 nm, Emission λ: 495 nm, cutoff: 475 nm, Automix: off, Calibrate: once, PMT: high, Reads/well: 6, Vmax pts: 21 or 28/51 depending on length of linearity of reaction
IC50 s are determined using a four parameter curve fit equation, and converted to Ki's using the following Km's: • Full-length E. coli NS3—2.03 μM • Full-length BV NS3—1.74 μM where Ki=IC50/(1+[S]/Km)) • Quantitation by ELISA of the selectable marker protein, Neomycin phosphotransferase II (NPTII) in the HCV Sub-Genomic Replicon, GS4.3
As for `COC(=O)c1cccc(CNC(=O)[C@@]23C[C@H]2/C=C\CCCCC[C@H](NC(=O)OC(C)(C)C)C(=O)N2CCC[C@H]2C(=O)N3)c1` [Compound 2321], the IC50 is less than 1 µM. Still for that read-out and setting: as for `CC(C)(C)OC(=O)NC1CCCCCC=CC2CC2(C(=O)NCc2cccc(Cl)c2)NC(=O)C2CCCN2C1=O` (stereo not drawn) [Compound 2309], the figure is less than 1 µM.

The same assay, now with this note: recombinant E. coli or Baculovirus full-length NS3 with NS4A-2; read-out: NS3-NS4 IC50.
Turning to `CC(C)(C)OC(=O)N[C@H]1CCCCC/C=C\[C@@H]2C[C@@]2(C(=O)NCCN2CCOCC2)NC(=O)[C@@H]2C[C@@H](OC(=O)N3Cc4cccc(F)c4C3)CN2C1=O` [Compound 607], the IC50 is greater than 10 µM. For the compound `CC(C)(C)OC(=O)N[C@H]1CCCCC/C=C\[C@@H]2C[C@@]2(C(=O)NS(=O)(=O)c2cccc(Br)c2)NC(=O)[C@@H]2CCCN2C1=O` [Compound 2112], the IC50 was less than 10 µM.

Take `CC(C)(C)OC(=O)N[C@H]1CCCCC/C=C\[C@@H]2C[C@@]2(C(=O)N[S@+]([O-])C(C)(C)C)NC(=O)[C@@H]2CCCN2C1=O` [Compound 2404]: the IC50 is less than 1 µM.

As for `Cc1noc(C)c1S(=O)(=O)NC(=O)[C@@]12C[C@H]1/C=C\CCCCC[C@H](NC(=O)OC(C)(C)C)C(=O)N1CCC[C@H]1C(=O)N2` [Compound 308], the IC50 was greater than 10 µM. On to `CC(C)(C)OC(=O)N[C@H]1CCCCC/C=C\[C@@H]2C[C@@]2(C(=O)NS(=O)(=O)c2ccc3ccccc3c2)NC(=O)[C@@H]2CCCN2C1=O` [Compound 2130], for which the IC50 was less than 10 µM. On the same count and under the same terms, then `CCCNC(=O)[C@@]12C[C@H]1/C=C\CCCCC[C@H](NC1CCC1)C(=O)N1C[C@H](OC(=O)N3Cc4cccc(F)c4C3)C[C@H]1C(=O)N2` [Compound 623], with less than 10 µM; and `CC(C)(C)OC(=O)N[C@H]1CCCCC/C=C\[C@@H]2C[C@@]2(C(=O)O)NC(=O)[C@@H]2C[C@@H](OC(=O)NCc3ccc(F)cn3)CN2C1=O` [Compound 151], with less than 10 µM; and `CC(C)(C)OC(=O)N[C@H]1CCCCC/C=C\[C@@H]2C[C@@]2(C(=O)NS(=O)(=O)/C=C/c2ccccc2)NC(=O)[C@@H]2CCCN2C1=O` [Compound 2125], with less than 1 µM.

On to `CC(C)(C)OC(=O)N[C@H]1CCCCC/C=C\[C@@H]2C[C@@]2(C(=O)NS(=O)(=O)C2CCCCC2)NC(=O)[C@@H]2CCCN2C1=O` [Compound 2121], for which the IC50 was less than 1 µM. Still for that read-out and setting: then `CC(C)(C)OC(=O)N[C@H]1CCCCC/C=C\[C@@H]2C[C@@]2(C(=O)NS(=O)(=O)NCc2ccccc2)NC(=O)[C@@H]2CCCN2C1=O` [Compound 2232], with less than 10 µM; and `CC1CCCN1S(=O)(=O)NC(=O)[C@@]12C[C@H]1/C=C\CCCCC[C@H](NC(=O)OC(C)(C)C)C(=O)N1CCC[C@H]1C(=O)N2` (stereo partly drawn) [Compound 2250], with less than 10 µM; and `CC(C)(C)OC(=O)N[C@H]1CCCCC/C=C\[C@@H]2C[C@@]2(C(=O)NS(=O)(=O)N2Cc3ccccc3C2)NC(=O)[C@@H]2CCCN2C1=O` [Compound 409], with less than 10 µM.

Take `CC(C)(C)OC(=O)N[C@H]1CCCCC/C=C\[C@@H]2C[C@@]2(C(=O)NS(=O)(=O)NCCc2cccc3ccccc23)NC(=O)[C@@H]2CCCN2C1=O` [Compound 422]: the IC50 was greater than 10 µM. Same read-out and setting: as for `CC(C)(C)OC(=O)NC1CCCCCCCC=CC2CC2(C(=O)NS(=O)(=O)C(F)(F)F)NC(=O)C2CCCN2C1=O` (stereo not drawn) [Compound 2107], the figure is less than 1 µM; as for `COc1cccc(CCNS(=O)(=O)NC(=O)[C@@]23C[C@H]2/C=C\CCCCC[C@H](NC(=O)OC(C)(C)C)C(=O)N2CCC[C@H]2C(=O)N3)c1` [Compound 414], greater than 10 µM. As to `CC(C)(C)OC(=O)N[C@H]1CCCCC/C=C\[C@@H]2C[C@@]2(C(=O)NC(=O)Nc2ccccc2)NC(=O)[C@@H]2C[C@@H](OC(=O)N3Cc4ccccc4C3)CN2C1=O` [Compound 704], the IC50 was less than 10 µM.

For `CC(C)(C)OC(=O)N[C@H]1CCCCC/C=C\[C@@H]2C[C@@]2(C(=O)NS(=O)(=O)c2cnc(Cl)c(Br)c2)NC(=O)[C@@H]2CCCN2C1=O` [Compound 2154], the IC50 is less than 10 µM. The same measure, in the same setting: then `CC(C)(C)OC(=O)N[C@H]1CCCCC/C=C\[C@@H]2C[C@@]2(C(=O)NS(=O)(=O)NCCc2cccnc2)NC(=O)[C@@H]2CCCN2C1=O` [Compound 424], with greater than 10 µM. For `CC(C)(C)OC(=O)N[C@H]1CCCCC/C=C\[C@@H]2C[C@@]2(C(=O)NS(=O)(=O)c2ccc(Cl)s2)NC(=O)[C@@H]2CCCN2C1=O` [Compound 2132], the IC50 is less than 10 µM.

With `CC(C)(C)OC(=O)N[C@H]1CCCCC/C=C\[C@@H]2C[C@@]2(C(=O)NS(=O)(=O)c2cc(Cl)sc2Cl)NC(=O)[C@@H]2CCCN2C1=O` [Compound 2126], the IC50 is less than 10 µM. On the same count and under the same terms, then `CC(C)(C)OC(=O)N[C@H]1CCCCC/C=C\[C@@H]2C[C@@]2(C(=O)NS(=O)(=O)NCc2ccncc2)NC(=O)[C@@H]2CCCN2C1=O` [Compound 426], with greater than 10 µM; and `COCC1(S(=O)(=O)NC(=O)[C@@]23C[C@H]2/C=C\CCCCC[C@H](NC(=O)OC(C)(C)C)C(=O)N2CCC[C@H]2C(=O)N3)CC1` [Compound 302], with less than 10 µM.

Regarding `CC(C)(C)OC(=O)N[C@H]1CCCCC/C=C\[C@@H]2C[C@@]2(C(=O)NS(=O)(=O)c2cc(Cl)ccc2F)NC(=O)[C@@H]2CCCN2C1=O` [Compound 2150], the IC50 is less than 10 µM. `CN(Cc1ccc(Cl)cc1)S(=O)(=O)NC(=O)[C@@]12C[C@H]1/C=C\CCCCC[C@H](NC(=O)OC(C)(C)C)C(=O)N1CCC[C@H]1C(=O)N2` [Compound 2230]: the IC50 is less than 10 µM. Take `O=C(N[C@H]1CCCCC/C=C\[C@@H]2C[C@@]2(C(=O)O)NC(=O)C2Cc3cc(Oc4cccc(Cl)c4)ccc3CN2C1=O)OC1CCCC1` (stereo partly drawn) [Compound 2002, (Z)-15-(3-chlorophenoxy)-9-(cyclopentyloxycarbonyl)-10,18-dioxo-1a,4,5,6,7,8,9,10,12,17,17a,18,19,19a-tetradecahydro-1H-11,14-diaza-bicyclo[13.1.0]hexadeca-1(16), 2-dieno[11,12-b]isoquinoline-19a-carboxylic acid]: the IC50 was less than 10 µM. Consider `CC(C)(C)OC(=O)N[C@H]1CCCCC/C=C\[C@@H]2C[C@@]2(C(=O)NS(=O)(=O)c2ccc(C#N)cc2)NC(=O)[C@@H]2CCCN2C1=O` [Compound 2134], for which the IC50 was less than 1 µM.

`CC(C)(C)OC(=O)N[C@H]1CCCCC/C=C\[C@@H]2C[C@@]2(C(=O)NS(=O)(=O)Nc2cccnc2)NC(=O)[C@@H]2CCCN2C1=O` [Compound 406]: the IC50 was greater than 10 µM. In the case of `CN(c1ccc(F)cc1)S(=O)(=O)NC(=O)[C@@]12C[C@H]1/C=C\CCCCC[C@H](NC(=O)OC(C)(C)C)C(=O)N1CCC[C@H]1C(=O)N2` [Compound 2229], the IC50 is less than 10 µM. `CC(C)(C)OC(=O)N[C@H]1CCCCC/C=C\[C@@H]2C[C@@]2(C(=O)NS(=O)(=O)c2cccs2)NC(=O)[C@@H]2CCCN2C1=O` [Compound 2136]: the IC50 is less than 10 µM. On the same count and under the same terms, then `C[C@H](NC(=O)O[C@@H]1C[C@H]2C(=O)N[C@]3(C(=O)O)C[C@H]3/C=C\CCCCC[C@H](NC(=O)OC(C)(C)C)C(=O)N2C1)c1ccc(F)cn1` [Compound 147], with greater than 10 µM.

`CNC(=O)NC(=O)[C@@]12C[C@H]1/C=C\CCCCC[C@H](NC(=O)OC(C)(C)C)C(=O)N1C[C@H](OC(=O)N3Cc4ccccc4C3)C[C@H]1C(=O)N2` [Compound 703]: the IC50 was less than 1 µM.
